Experiment: xn = mol fraction of the nth substance listed
Conditions: Liquid, Bellows volumetry

CCCC [butane] + O=C=O
mass density [kg/m3]
Conditions	360 K	380 K	400 K	420 K	440 K
10000 kPa, x2 = 0.2322	–	–	446.86	–	–
20000 kPa, x2 = 0.2322	–	–	507.96	–	450.53
20000 kPa, x2 = 0.4794	–	542.77	502.33	–	–
30000 kPa, x2 = 0.2322	–	–	540.33	–	495.88
30000 kPa, x2 = 0.4794	–	587.13	556.87	526.92	497.45
30000 kPa, x2 = 0.715	–	–	566.01	–	–
40000 kPa, x2 = 0.2322	–	–	563.25	–	525.21
40000 kPa, x2 = 0.4794	–	616.84	591.24	566.28	541.84
40000 kPa, x2 = 0.715	–	–	621.7	–	554.08
50000 kPa, x2 = 0.2322	–	–	581.4	–	547.37
50000 kPa, x2 = 0.4794	–	639.71	616.85	595.02	573.48
50000 kPa, x2 = 0.715	724.09	–	660.78	–	601.28
60000 kPa, x2 = 0.2322	629.59	–	596.43	–	565.31
60000 kPa, x2 = 0.4794	679.22	658.27	637.36	617.32	597.98
60000 kPa, x2 = 0.715	747.95	–	690.23	–	637.06
70000 kPa, x2 = 0.2322	640.64	–	609.35	–	580.32
70000 kPa, x2 = 0.4794	693.75	674.23	654.78	635.97	618.26
70000 kPa, x2 = 0.715	768.11	–	714.95	–	665.83
80000 kPa, x2 = 0.2322	650.47	–	620.59	–	593.42
80000 kPa, x2 = 0.4794	706.48	687.97	669.8	652.07	635.67
80000 kPa, x2 = 0.715	785.74	–	735.73	–	689.85
90000 kPa, x2 = 0.2322	659.56	–	631	–	605.1
90000 kPa, x2 = 0.4794	717.86	700.34	682.95	666.23	651.02
90000 kPa, x2 = 0.715	801.06	–	753.9	–	710.59
100000 kPa, x2 = 0.2322	667.72	–	640.36	–	615.81
100000 kPa, x2 = 0.4794	728.39	711.49	695.05	678.91	664.29
100000 kPa, x2 = 0.715	815.17	–	770.02	–	728.79
120000 kPa, x2 = 0.2322	683.01	–	657.01	–	634.32
120000 kPa, x2 = 0.4794	747.06	731.12	716.06	701.1	687.84
120000 kPa, x2 = 0.715	839.59	–	797.97	–	759.95
140000 kPa, x2 = 0.2322	695.82	–	671.62	–	650.31
140000 kPa, x2 = 0.4794	763.38	748.2	734.23	719.99	707.66
140000 kPa, x2 = 0.715	861.07	–	821.54	–	786.09
160000 kPa, x2 = 0.2322	707.43	–	684.45	–	664.25
160000 kPa, x2 = 0.4794	777.86	763.43	749.98	736.74	724.96
160000 kPa, x2 = 0.715	878.95	–	841.99	–	808.63
180000 kPa, x2 = 0.2322	718.38	–	696.37	–	676.7
180000 kPa, x2 = 0.4794	790.57	776.93	764.27	751.63	740.16
180000 kPa, x2 = 0.715	895.71	–	860.22	–	828.38
200000 kPa, x2 = 0.2322	727.81	–	706.63	–	688.15
200000 kPa, x2 = 0.4794	802.28	789.44	777.01	764.81	754.38
200000 kPa, x2 = 0.715	910.63	–	876.67	–	846.42
